Patent US9796706B2, “Inhibitors of Jun N-terminal kinase” (IMAGO PHARMACEUTICALS, INC., priority 2009, dated 2017)

Key:
Format in all cases: biochemical
Settings in all cases: procedures of Example 14 (TR-FRET)
JNK1 = JNK1 (Homo sapiens (Human), UniProt P45983); experiment: JNK1 TR-FRET kinase assay (Example 14)
Experimental: (§1) 14.3. Active JNK 1, 2 and 3 TR-FRET Assay
(§2) (1) Assay buffer #1 with 0.0025% Tween and 1 mM DTT was prepared using JNK buffer stock solution.
(§3) (2) Assay buffer #2 with 0.025% BSA was prepared using the assay buffer #1.
(§4) (3) Test compound solution preparation: 5× compound solution was prepared using assay buffer #1 with 5% DMSO. The compound solution (10 μl/well) was added to a 384-well plate (Corning, Cat No. 3654).
(§5) (4) aJNK1, 2 or 3 preparation: aJNK stock (100 μg/ml) at −80° C. was thawed on ice and an aJNK (1.6 ng/ml) solution was prepared using assay buffer #2. The aJNK solution (20 μl/well) was added to the plate and the plate was shaken. The enzyme was incubated with the compound at RT for 10 min. (5) ATP/substrate solution preparation: ATP and substrate stocks were thawed on ice. 2.5×ATP/substrate (e.g., 25 μM or 2.5 mM ATP/50 nM EPIW-1) was prepared using assay buffer #1. The ATP/substrate (20 μl/well) was added to the plate and the plate was shaken. The plate was incubated at RT for 15 min. Note: In an exemplary assay, the final ATP concentration was about 1 mM. (6) EDTA preparation: 30 mM EDTA was prepared using 0.5M EDTA stock and assay buffer #1. The EDTA (10 μl/well) was added to the plate to quench the enzyme reaction and the plate was shaken well. (7) Detection reagent preparation: Eu-63 and SA-XL stocks were thawed on ice. 4× Eu-63/SA-XL (2 nM Eu-63/9.4 nM SA-XL) was prepared using JNK detection buffer. The Eu-63/SA-XL solution (20 μl/well) was added to the plate and the plate was shaken. The plate was incubated at RT for 1 hr before reading the plate on LJL using ratiometric method named HTRF.
(§6) 14.4. Coupled JNK 1, 2 and 3 TR-FRET Assay
(§7) (1) Assay buffer with 0.0025% Tween, 0.01% BSA, and 1 mM DTT was prepared using JNK buffer stock solution.
(§8) (2) Test compound solution preparation: 5× compound solution, including EDTA background, was prepared using assay buffer with 5% DMSO. The compound solution (10 μl/well) was added to a 384-well plate (Corning, Cat No. 3654).
(§9) (3) uJNK1,2, or 3 activation reaction preparation: uJNK activation solution was prepared using assay buffer (1.6 ng/ml MKK4, 1.6 ng/ml MKK7, 16 ng/ml uJNK, and 20 uM ATP final). The uJNK activation solution (35 μl/well) was added to the plate, the plate was shaken, and the reaction mixture was incubated with compound at 30° C. for 60 min. (4) c-Jun substrate solution preparation: 50 nM EPIW-1, c-Jun peptide, was prepared using assay buffer (15 nM final). The EPIW-1 solution (15 μl/well) was added to the plate, the plate was shaken and incubated at 30° C. for 60 min. (5) EDTA preparation: 30 mM EDTA was prepared using 0.5M EDTA stock and assay buffer. The EDTA (10 μl/well) was added to the plate to quench the enzyme reaction and the plate was shaken well. (6) Detection reagent preparation: Eu-73 and SA-XL stocks were thawed on ice. 4× Eu-73/SA-XL (2 nM Eu-73/9.4 nM SA-XL) were prepared using JNK detection buffer. The Eu-73/SA-XL solution (20 μl/well) was added to the plate. The plate was shaken and incubated at RT for 1 hr before reading the plate on LJL using ratiometric method named HTRF.

JNK2 = JNK2 (Homo sapiens (Human), UniProt P45984); experiment: JNK2 TR-FRET kinase assay (Example 14)
Sequence of JNK2 (P45984 whole entry, species assumed): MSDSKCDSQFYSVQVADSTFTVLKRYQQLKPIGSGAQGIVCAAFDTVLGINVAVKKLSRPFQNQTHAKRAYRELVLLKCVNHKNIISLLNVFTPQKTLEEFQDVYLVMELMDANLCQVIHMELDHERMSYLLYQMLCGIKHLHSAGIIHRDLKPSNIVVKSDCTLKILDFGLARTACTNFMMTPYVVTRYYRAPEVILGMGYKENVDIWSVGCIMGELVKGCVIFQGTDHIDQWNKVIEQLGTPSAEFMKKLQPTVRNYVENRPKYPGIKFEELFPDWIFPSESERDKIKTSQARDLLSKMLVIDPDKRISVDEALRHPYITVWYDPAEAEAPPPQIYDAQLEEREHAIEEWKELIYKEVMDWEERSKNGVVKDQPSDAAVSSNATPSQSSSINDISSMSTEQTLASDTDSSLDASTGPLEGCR
Experimental: as §1, §2, §3, §4, §5, §6, §7, §8, §9

JNK3 = JNK3 (Homo sapiens (Human), UniProt P53779); experiment: JNK3 TR-FRET kinase assay (Example 14)
Sequence of JNK3 (P53779 whole entry, species assumed): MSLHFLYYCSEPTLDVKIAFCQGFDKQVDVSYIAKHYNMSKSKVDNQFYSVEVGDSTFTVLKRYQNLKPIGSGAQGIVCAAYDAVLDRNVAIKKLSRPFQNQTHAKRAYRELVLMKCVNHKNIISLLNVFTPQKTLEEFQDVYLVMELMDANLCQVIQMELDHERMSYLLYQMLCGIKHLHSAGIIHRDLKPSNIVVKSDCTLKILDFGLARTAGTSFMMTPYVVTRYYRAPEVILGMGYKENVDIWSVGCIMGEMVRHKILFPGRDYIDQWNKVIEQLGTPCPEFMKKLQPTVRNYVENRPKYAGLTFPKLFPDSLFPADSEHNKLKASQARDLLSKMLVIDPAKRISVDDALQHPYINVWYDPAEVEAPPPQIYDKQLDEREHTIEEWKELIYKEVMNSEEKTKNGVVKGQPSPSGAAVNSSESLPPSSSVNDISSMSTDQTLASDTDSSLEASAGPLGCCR
Experimental: as §1, §2, §3, §4, §5, §6, §7, §8, §9

Sequence of JNK1 (P45983 other isoform, or with tags, fused parts or gaps isoform P45983-2, species assumed): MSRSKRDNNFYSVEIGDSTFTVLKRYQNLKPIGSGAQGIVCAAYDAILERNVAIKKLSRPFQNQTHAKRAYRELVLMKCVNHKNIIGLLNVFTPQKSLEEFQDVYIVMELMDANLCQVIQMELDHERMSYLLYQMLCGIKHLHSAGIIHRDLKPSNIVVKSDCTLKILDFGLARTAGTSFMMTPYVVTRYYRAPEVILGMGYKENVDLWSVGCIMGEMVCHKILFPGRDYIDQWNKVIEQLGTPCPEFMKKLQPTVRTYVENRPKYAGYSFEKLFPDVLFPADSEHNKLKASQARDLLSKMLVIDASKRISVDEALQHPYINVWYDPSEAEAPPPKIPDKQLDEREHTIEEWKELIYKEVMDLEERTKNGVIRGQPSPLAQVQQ

SMILES | IC50 (JNK1) [µM] | IC50 (JNK2) [µM] | IC50 (JNK3) [µM]
O=C(Cn1c(=O)ccc2cc(F)c(F)cc21)Nc1sccc1-c1ncon1 [N-(3-(1,2,4-oxadiazol-3-yl)thiophen-2-yl)-2-(6,7-difluoro-2-oxoquinolin-1(2H)-yl)acetamide] | < 0.1 | 0.1 to 10 | 0.1 to 10
COc1ccc(CC(=O)Nc2ccsc2-c2ncn[nH]2)cc1 [N-(2-(1H-1,2,4-triazol-5-yl)thiophen-3-yl)-2-(4-methoxyphenyl)acetamide] | 0.1 to 10 | 0.1 to 10 | 0.1 to 10
CN(C)CCn1cnc(-c2c(Cl)csc2NC(=O)Cn2c(=O)ccc3cc(C(F)(F)F)ccc32)n1 [N-(4-chloro-3-(1-(2-(dimethylamino)ethyl)-1H-1,2,4-triazol-3-yl)thiophen-2-yl)-2-(2-oxo-6-(trifluoromethyl)quinolin-1(2H)-yl)acetamide] | < 0.1 | < 0.1 | < 0.1
COc1ccc(CC(=O)Nc2ccsc2-n2cc(C)cn2)cc1 [2-(4-methoxyphenyl)-N-(2-(4-methyl-1H-pyrazol-1-yl)thiophen-3-yl)acetamide] | > 10 | > 10 | > 10
O=C(Cn1c(=O)ccc2cc(C(F)(F)F)ccc21)Nc1scc(Cl)c1-c1ncn(CCCN2CCCC2)n1 [N-(4-chloro-3-(1-(3-(pyrrolidin-1-yl)propyl)-1H-1,2,4-triazol-3-yl)thiophen-2-yl)-2-(2-oxo-6-(trifluoromethyl)quinolin-1(2H)-yl)acetamide] | < 0.1 | < 0.1 | < 0.1
O=C(Cn1c(=O)ccc2cnccc21)Nc1ccsc1-c1cscn1 [2-(2-oxo-1,6-naphthyridin-1(2H)-yl)-N-(2-(thiazol-4-yl)thiophen-3-yl)acetamide] | < 0.1 | 0.1 to 10 | 0.1 to 10
N#Cc1csc(NC(=O)Cn2c(=O)ccc3cc(C(F)(F)F)ccc32)c1-c1nccs1 [N-(4-cyano-3-(thiazol-2-yl)thiophen-2-yl)-2-(2-oxo-6-(trifluoromethyl)quinolin-1(2H)-yl)acetamide] | < 0.1 | < 0.1 | < 0.1
O=C(Cc1ccc(OCCCN2CCCCC2)cc1)Nc1ccsc1-c1cscn1 [2-(4-(3-(piperidin-1-yl)propoxy)phenyl)-N-(2-(thiazol-4-yl)thiophen-3-yl)acetamide] | 0.1 to 10 | 0.1 to 10 | 0.1 to 10
COc1ccc(CC(=O)Nc2ccsc2-c2nc(C(C)(C)C)n[nH]2)cc1 [N-(2-(3-tert-butyl-1H-1,2,4-triazol-5-yl)thiophen-3-yl)-2-(4-methoxyphenyl)acetamide] | 0.1 to 10 | > 10 | 0.1 to 10
N#Cc1csc(NC(=O)Cc2cccc3ncccc23)c1-c1nnc[nH]1 [N-(4-cyano-3-(4H-1,2,4-triazol-3-yl)thiophen-2-yl)-2-(quinolin-5-yl)acetamide] | < 0.1 | < 0.1 | < 0.1
COc1ccc(CC(=O)Nc2ccsc2N2CCOC2=O)cc1 [2-(4-methoxyphenyl)-N-(2-(2-oxooxazolidin-3-yl)thiophen-3-yl)acetamide] | > 50 | > 50 | > 10
Cc1n[nH]c(-c2sccc2NC(=O)Cc2ccc3c(c2)OCCO3)n1 [2-(2,3-dihydrobenzo[b][1,4]dioxin-6-yl)-N-(2-(3-methyl-1H-1,2,4-triazol-5-yl)thiophen-3-yl)acetamide] | 0.1 to 10 | 0.1 to 10 | 0.1 to 10

Further lines, results first:

IC50 (JNK1) [µM] | IC50 (JNK2) [µM] | IC50 (JNK3) [µM] | SMILES
0.1 to 10 | 0.1 to 10 | 0.1 to 10 | Cc1csc(NC(=O)Cc2ccc(OCCCN3CCCCC3)cc2)c1-c1ncn[nH]1 [N-(4-methyl-3-(1H-1,2,4-triazol-5-yl)thiophen-2-yl)-2-(4-(3-(piperidin-1-yl)propoxy)phenyl)acetamide]
< 0.1 | < 0.1 | < 0.1 | O=C(Cn1c(=O)ccc2ncccc21)Nc1scc(Br)c1-c1ncn[nH]1 [N-(4-bromo-3-(1H-1,2,4-triazol-5-yl)thiophen-2-yl)-2-(2-oxo-1,5-naphthyridin-1(2H)-yl)acetamide]
0.1 to 10 | 0.1 to 10 | 0.1 to 10 | O=C(CN1C(=O)CCc2ccc(Br)cc21)Nc1scc(Br)c1-c1ncn[nH]1 [2-(7-bromo-2-oxo-3,4-dihydroquinolin-1(2H)-yl)-N-(4-bromo-3-(1H-1,2,4-triazol-5-yl)thiophen-2-yl)acetamide]
< 0.1 | < 0.1 | < 0.1 | O=C(CN1C(=O)CCc2ncccc21)Nc1scc(Cl)c1-c1nccs1 [N-(4-chloro-3-(thiazol-2-yl)thiophen-2-yl)-2-(2-oxo-3,4-dihydro-1,5-naphthyridin-1(2H)-yl)acetamide]
< 0.1 | < 0.1 | < 0.1 | O=C(CN1C(=O)CCc2ccc(Cl)cc21)Nc1scc(Br)c1-c1ncn[nH]1 [N-(4-bromo-3-(1H-1,2,4-triazol-5-yl)thiophen-2-yl)-2-(7-chloro-2-oxo-3,4-dihydroquinolin-1(2H)-yl)acetamide]
< 0.1 | < 0.1 | < 0.1 | N#Cc1csc(NC(=O)CN2C(=O)CCc3ncccc32)c1-c1nccs1 [N-(4-cyano-3-(thiazol-2-yl)thiophen-2-yl)-2-(2-oxo-3,4-dihydro-1,5-naphthyridin-1(2H)-yl)acetamide]
< 0.1 | < 0.1 | < 0.1 | O=C(Cc1cccc2ncc(F)cc12)Nc1scc(Br)c1-c1nc[nH]n1 [N-(4-bromo-3-(1H-1,2,4-triazol-3-yl)thiophen-2-yl)-2-(3-fluoroquinolin-5-yl)acetamide]
< 0.1 | < 0.1 | < 0.1 | O=C(Cn1c(=O)ccn2nc(C(F)(F)F)cc12)Nc1scc(Cl)c1-c1ncn[nH]1 [N-(4-chloro-3-(1H-1,2,4-triazol-5-yl)thiophen-2-yl)-2-(5-oxo-2-(trifluoromethyl)pyrazolo[1,5-a]pyrimidin-4(5H)-yl)acetamide]
< 0.1 | < 0.1 | < 0.1 | O=C(Cn1c(=O)ccc2ccc(OC(F)(F)F)cc21)Nc1scc(Br)c1-c1ncn[nH]1 [N-(4-bromo-3-(1H-1,2,4-triazol-5-yl)thiophen-2-yl)-2-(2-oxo-7-(trifluoromethoxy)quinolin-1(2H)-yl)acetamide]
< 0.1 | < 0.1 | < 0.1 | O=C(Cn1c(=O)ccc2c(F)cccc21)Nc1scc(Br)c1-c1ncn[nH]1 [N-(4-bromo-3-(1H-1,2,4-triazol-5-yl)thiophen-2-yl)-2-(5-fluoro-2-oxoquinolin-1(2H)-yl)acetamide]
< 0.1 | < 0.1 | < 0.1 | O=C(Cn1c(=O)ccc2cnc(C(F)(F)F)cc21)Nc1scc(Br)c1-c1ncn[nH]1 [N-(4-bromo-3-(1H-1,2,4-triazol-5-yl)thiophen-2-yl)-2-(2-oxo-7-(trifluoromethyl)-1,6-naphthyridin-1(2H)-yl)acetamide]
< 0.1 | < 0.1 | < 0.1 | Cn1cnc(-c2c(Br)csc2NC(=O)CN2C(=O)CCc3ncccc32)n1 [N-(4-bromo-3-(1-methyl-1H-1,2,4-triazol-3-yl)thiophen-2-yl)-2-(2-oxo-3,4-dihydro-1,5-naphthyridin-1(2H)-yl)acetamide]
< 0.1 | < 0.1 | < 0.1 | O=C(Cn1c(=O)ccc2ccc(F)cc21)Nc1scc(Br)c1-c1ncn[nH]1 [N-(4-bromo-3-(1H-1,2,4-triazol-5-yl)thiophen-2-yl)-2-(7-fluoro-2-oxoquinolin-1(2H)-yl)acetamide]
< 0.1 | < 0.1 | < 0.1 | N#Cc1csc(NC(=O)Cc2cccc3cnccc23)c1-c1ncn[nH]1 [N-(4-cyano-3-(1H-1,2,4-triazol-5-yl)thiophen-2-yl)-2-(isoquinolin-5-yl)acetamide]
